How the values were obtained:
[1] = tested on: hippocampal slice; test: Stimulation-evoked afterdischarge activity in hippocampal slice (field recording and intrinsic optical signal); assay type: cell-based, rat
Description: Sprague-Dawley rats (male and female; 25 to 35 days old) were prepared as described in Aghajanian, A. K. and Rasmussen, K., Synapse 31:331, 1989; and Buckmaster, P. S., Strowbridge, B. W., Schwartzdroin, P. A., J. Neurophysiol. 70:1281, 1993. In most hippocampal slice experiments, simultaneous extracellular field electrode recordings were obtained from CA1 and CA3 areas. For stimulation-evoked afterdischarge (13 slices, 8 animals), the concentration of Mg^2+ in the bathing medium was reduced to 0.9 mM. A bipolar tungsten stimulating electrode was placed on the Schaffer collaterals to evoke synaptically driven field responses in CA1; stimuli consisted to 100 to 300-μs-duration pulses at an intensity of four times population-spike threshold. Afterdischarges were evoked by a 2-s train of such stimuli delivered at 60 Hz. […] In all treatments, perfusion with furosemide-containing medium was begun after a consistent level of bursting had been established.
For imaging of intrinsic optical signals, the tissue was illuminated with a beam of white light (tungsten filament light and lens system; Dedotec USA, Lodi, N.J.) directed through the microscope condenser. The light was controlled and regulated (power supply: Lambda Electronics, Melville, N.Y.) to minimize fluctuations and filtered (695 nm long-pass) so that the slice was transilluminated with long wavelengths (red). Image frames were acquired with a charge-coupled device camera (Dage-MTI) at 30 Hz and were digitized at 8 bits with a spatial resolution of 512 by 480 pixels by means of an Imaging Technology Series 151 imaging system; gains and offsets of the camera-control box and the analog-to-digital board were adjusted to optimize the sensitivity of the system. Imaging hardware was controlled by a 486-PC-compatible computer running software written by D. Hochman and developed with commercially available software tools (Microsoft's C/C++ Compiler and Imaging Technology's ITEX library). To increase signal-to-noise ratio, an averaged image was composed from 16 individual image-frames, integrated over 0.5 s and averaged together. An experimental series typically involved the continuous acquisition of a series of averaged images over a several minute time period; at least 10 of these averaged images were acquired as control images before stimulation. Pseudo-colored images were calculated by subtracting the first control image from subsequently acquired images and assigned a color lookup table to the pixel values. For these images, usually a linear low-pass filter was used to remove high-frequency noise and a linear-histogram stretch was used to map the pixel values over the dynamic range of the system. All operations on these images were linear so that quantitative information was preserved.

[2] = tested on: rat glioma; conditions: female, F-344, rat, in vivo
Description: The rat glioma model is a standard predictive model and was used to delineate dye uptake, clearance and overall parameters of optical imaging that result in the best images. The rat glioma model consistently produces reproducible tumors for imaging studies in which the tumor is resected under an operating microscope. A disadvantage of this model is the more sarcoma-like appearance of the tumor and a lesser degree of vascularity compared to human gliomas.
Briefly, the rat glioma model uses an ethylnitrosourea-induced F-344 rat tumor line developed from a clonal population of a spinal malignant astrocytoma. […] The glioma cells were maintained in Weymouth's medium supplemented with 10% fetal calf serum. Viable cells ([…]) were trypsinized from a monolayer culture and implanted stereotaxically into the right cerebral hemisphere of 30 syngeneic female rats, each weighing 140-160 g. The stereotaxic coordinates for right frontal lobe implantation were 4.5 mm anterior to the frontal zero plane, 3 mm right from the midline and 6 mm deep. The rats were anesthetized for implantation. The heads were shaved and scalps opened, and a 1 mm burr hole made at the appropriate coordinates. The cells were injected through a 27 gauge needle, the needle left in place for 30 sec post injection and the hole was covered with bone wax. The scalp was sutured and the animals observed for 3-4 hrs until they returned to normal activity and feeding. The animals were used 10-14 days after tumor implantation. In this model, animals begin to show clinical symptoms from the tumor by 16-19 days, such as decreased activity and feeding, hemiparesis and eventually succumb between 19-27 days from mass effects due to tumor expansion.
Fourteen animals underwent the complete study, including imaging before and after resection of the tumor. The animals were anesthetized with 2% isoflurane, and the femoral vein cannulated for administration of the dye. Anesthesia was maintained with a—chloralose (50 mg/kg administered ip) and urethane (160 mg/kg administered ip). The animals were placed in a stereotaxic holder. Imaging studies were then carried out before or after removal of the cranium. The tumor typically occupied the anterior one half to two thirds of the right hemisphere exposure. The compressed brain without any tumor infiltration was defined as the tumor surround to separate it from the normal hemisphere on the contralateral side.
The following imaging apparatus was employed in Examples 5 and 6. Light was from a tungsten-halogen bulb regulated by a D.C. power supply, passed through a longpass filter (690 nm), and through a right angled prism reflected through a 50 or 100 mm objective lens onto the cortical surface. […]

[3] = tested on: low grade CNS tumor (astrocytoma, grade 1); test: Intraoperative optical imaging of dye uptake and clearance, low grade human CNS tumor; assay type: in vivo; conditions: 1 mg/kg iv bolus
Description: (§1) The procedure used in Examples 1-4 was as follows. The area of interest was evenly illuminated by a fiber optic light source with the radiation passing through a beam splitter, controlled by a D.C. regulated power supply (Lambda, Inc.) and passed through a 695 nm longpass filter. Images were acquired with a CCD camera (COHU 6500) fitted to the operating microscope with a specially modified cineadaptor. The cortex was stabilized with a glass footplate. Images were acquired at 30 Hz and digitized at 8 bits (512×480 pixels, using an Imaging Technology, Inc. Series 151 system, Woburn, Mass.). Geometrical transformations were applied to images to compensate for small amounts of patient motion (Wohlberg, Digital Imaging Warping, IEEE Computer Society: Los Alamitos, Calif., 1988). […] Raw data (i.e., no digital enhancement) were used for determining the average optical change in specified regions (average size box was 30×30 pixels or 150-250 um^2). For pseudocolor images, a linear low pass filter removed high frequency noise and linear histogram transformations were applied. Noise was defined as the standard deviation of fluctuations it! sequentially acquired control images as 0.003-0.009.
An averaged control image was obtained of the particular cortical surface area of interest. FIG. 1A is a gray-scale image of the area of interest prior to dye administration. […]

[4] = tested on: rat glioma; conditions: in vivo
Description: This example illustrates a series of experiments using a rat glioma model through an intact skull to investigate whether the inventive method and inventive device could function in to image tumor tissue through an intact skull and through intact skin prior to or after surgery. Far red wavelengths of emr are known to penetrate through bone and skin. Imaging of tumor tissue was attempted through the intact skull of the rat. The extent of tumor identified was not as accurate as with the cortex exposed; however, the area lying beneath the skull with tumor tissue was easily identified and localized, and continued to concentrate dye after several minutes. […] One minute after dye injection, the dye had been cleared from the normal brain and the only residual signal remained in tumor tissue and the sagital/traverse sinuses.
FIG. 5A is a gray scale image of the cranial surface of a rat. The sagital suture runs down the center of the image. Tumor cells had been injected into the left side some days earlier so that this animal had developed a glioma on t he left hemisphere of its brain. The right hemisphere was normal. Box 1 lays over the suspect region of brain tumor, and Box 2 lays over normal tissue. FIG. 5B is a difference image one second after indocyanine green dye had been intraveneously injected into the animal. The region containing tumor tissue becomes immediately visible through the intact cranium. […] The concentration of dye in the center of this difference image is dye circulating in the sagital sinus.
The optical changes were determined by the average optical change in a box placed directly over the tumor and over the normal hemisphere. The increase in absorption is a function of the concentration of dye in the tissue at a particular time. The graph labeled “extracranial tumor” is a plot of the dynamics of the absorption changes within box 1 from FIG. 5A. The graph labeled “extracranial: normal” is a plot of the dynamics of the absorption change within box 2 from FIG. 5A.
The following imaging apparatus was employed in Examples 5 and 6. […]

[5] = tested on: highly malignant CNS tumor (glioblastoma; astrocytoma, grade IV); test: Intraoperative optical imaging of dye uptake and clearance, malignant human CNS tumor; assay type: in vivo; conditions: iv injection; 1 minute and 10 minutes after dye injection
Description: as §1
This example illustrates optical detection of a highly malignant CNS tumor (glioblastoma; astrocytoma, grade IV). […]

[6] = 2.5 mM, 20 minutes of perfusion

Compound | electrical afterdischarge activity [1, 6] | stimulation-evoked optical changes [1, 6] | reversibility after washout ([1]; 45 minutes of perfusion with normal bathing medium) | epileptiform activity and intrinsic optical signal during electrical stimulation ([1]; following treatment with furosemide) | duration of prolonged increase in optical signal in the tumor [2] | dye uptake rise time, normal [2] | onset of optical signal change after dye injection [2] | peak percentage difference change, tumor [2] | entry of dye into low grade tumor tissue vs normal brain tissue [3] | peak optical change, normal brain [4] | peak optical change, tumor [4] | dye clearance, normal vs tumor region ([4]; iv) | retention of dye in malignant tissue [5]
NS(=O)(=O)c1cc(C(=O)O)c(NCc2ccco2)cc1Cl [furosemide] | blocked | blocked | restoration of the initial response pattern | blocks the epileptiform activity and the intrinsic optical signal |  |  |  |  |  |  |  |  | 
CC1(C)C(/C=C/C=C/C=C/C=C2\N(CCCCS(=O)(=O)O)c3ccc4ccccc4c3C2(C)C)=[N+](CCCCS(=O)(=O)[O-])c2ccc3ccccc3c21 [indocyanine green] |  |  |  |  | > 2 min | 2.4 %/sec | 2 to 3 s | 40.5±9.6% | enters low grade tumor tissue faster than normal brain tissue | 7.8±2.3% | 13.1±3.9% | the normal tissue has cleared the dye, but dye is still retained in the tumor region | retained significantly longer in malignant tissue than in benign tumor tissue

Reference: patent publication US6671540B1, “Methods and systems for detecting abnormal tissue using spectroscopic techniques” (priority 1990, dated 2003)
